Experimental data taken from PubChem BioAssay (NCI).
Several values for one entry are separate records, joined by “and”; a condition that tells them apart may be missing. Identical values can stand only once.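 Assay format: 96-well plates, 48-hour exposure. GI50 = concentration required for 50% inhibition of growth. TGI marks complete inhibition of growth.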

Key:
Test in all cases: NCI tumour cell line growth inhibition, 48 h
[1] = test system: SN12K1 renal
[2] = test system: SK-MEL-28 melanoma
[3] = test system: OVCAR-3 ovarian
[4] = test system: CCRF-CEM leukemia
[5] = test system: SF-295 CNS
[6] = test system: SW-620 colon
[7] = test system: SF-268 CNS
[8] = test system: LOX IMVI melanoma
[9] = test system: COLO 205 colon
[10] = test system: M19-MEL melanoma
[11] = test system: UACC-257 melanoma
[12] = test system: HCT-15 colon
[13] = test system: HOP-92 NSCLC
[14] = test system: RXF 393 renal
[15] = test system: RPMI-8226 leukemia
[16] = test system: HOP-62 NSCLC
[17] = test system: HOP-18 NSCLC
[18] = test system: A498 renal
[19] = test system: DMS 114 small cell lung
[20] = test system: SK-MEL-5 melanoma
[21] = test system: NCI-H23 lung
[22] = test system: HT29 colon
[23] = test system: DLD-1 colon
[24] = test system: UO-31 renal
[25] = test system: IGROV1 ovarian
[26] = test system: MALME-3M melanoma
[27] = test system: SNB-75 CNS
[28] = test system: SNB-19 CNS
[29] = test system: NCI/ADR-RES ovarian
[30] = test system: HCC-2998 colon
[31] = test system: P388/ADR leukemia
[32] = test system: OVCAR-4 ovarian
[33] = test system: U251 CNS
[34] = test system: SF-539 CNS
[35] = test system: A549 NSCLC
[36] = test system: MCF7 breast
[37] = test system: HL-60(TB) leukemia
[38] = test system: OVCAR-8 ovarian
[39] = test system: HCT-116 colon
[40] = test system: NCI-H522 lung
[41] = test system: CAKI-1 renal
[42] = test system: MOLT-4 leukemia
[43] = test system: UACC-62 melanoma
[44] = test system: K-562 leukemia
[45] = test system: XF 498 CNS
[46] = test system: OVCAR-5 ovarian
[47] = test system: NCI-H460 lung
[48] = test system: SN12C renal
[49] = test system: KM20L2 colon
[50] = test system: SK-OV-3 ovarian
[51] = test system: NCI-H226 lung
[52] = test system: EKVX NSCLC
[53] = test system: SK-MEL-2 melanoma
[54] = test system: DMS 273 small cell lung
[55] = test system: KM12 colon

## O=C1C=C[C@@H](COC2OC(CO)C(O)C(O)C2O)O1 (some centres not stated)
[1]
  TGI: 28.9 µM and 29.2 µM
[2]
  GI50: 11.8 µM
  TGI: 26.1 µM and > 100 µM
[3]
  GI50: 10.6 µM
  TGI: 22.4 µM and 31.5 µM
[4]
  TGI: 13.9 µM and 40.8 µM
[5]
  TGI: 41.8 µM and 45 µM
[6]
  TGI: 16.1 µM and 15.8 µM
[7]
  GI50: 4.59 µM
  TGI: 17.8 µM and 62.6 µM
[8]
  TGI: 15.8 µM and 16.4 µM
[9]
  GI50: 3.44 µM
  TGI: 14.4 µM and 19.5 µM
[10]
  GI50: 3.8 µM
  TGI: 16.3 µM and 26.8 µM
[11]
  GI50: 10.2 µM
  TGI: 22.8 µM and 27.7 µM
[12]
  GI50: 3.22 µM
  TGI: 21.5 µM and 16.4 µM
[13]
  GI50: 14.3 µM
  TGI: 30.3 µM and 36 µM
[14]
  GI50: 2.72 µM
  TGI: 8.82 µM
[15]
  GI50: 2.45 µM
[16]
  TGI: > 100 µM
[17]
  TGI: > 100 µM
[18]
  TGI: 30.6 µM
[19]
  GI50: 3.73 µM
  TGI: 14.2 µM and 28.5 µM
[20]
  TGI: 33.9 µM
[21]
  GI50: 5.12 µM
  TGI: 19.2 µM and 29.7 µM
[22]
  GI50: 1.62 µM
  TGI: 5.69 µM and 19.2 µM
[23]
  TGI: 17.9 µM and 19.1 µM
[24]
  TGI: 85 µM
[25]
  GI50: 14.2 µM
  TGI: 34.9 µM and 83.1 µM
[26]
  GI50: 12.5 µM
  TGI: 31.9 µM
[27]
  TGI: 29.7 µM and 31.8 µM
[28]
  GI50: 20.6 µM
  TGI: 53.2 µM
[29]
  TGI: 28 µM and 34.8 µM
[30]
  TGI: > 100 µM
[31]
  TGI: 1.82 µM
[32]
  GI50: 13.2 µM
  TGI: 28.2 µM and 33.6 µM
[33]
  TGI: 31 µM and 30.9 µM
[34]
  TGI: 17.6 µM and 18.4 µM
[35]
  GI50: 16.7 µM
  TGI: 76.9 µM and 62.6 µM
[36]
  GI50: 1.24 µM
  TGI: 3.81 µM and 19.6 µM
[37]
  GI50: 2.75 µM
  TGI: 15.4 µM and 5.22 µM
[38]
  GI50: 4.61 µM
  TGI: > 100 µM and 66.5 µM
[39]
  GI50: 2.63 µM
  TGI: 10.5 µM and > 100 µM
[40]
  GI50: 2.22 µM
  TGI: 5.61 µM and 18.4 µM
[41]
  TGI: 40 µM
[42]
  TGI: 21.1 µM and 48.6 µM
[43]
  GI50: 3.03 µM
  TGI: 12 µM and 22.6 µM
[44]
  TGI: 23.6 µM and > 100 µM
[45]
  GI50: 14.3 µM
  TGI: 31.6 µM and 34.5 µM
[46]
  GI50: 28.5 µM
  TGI: 50.4 µM and 36.8 µM
[47]
  GI50: 3.68 µM
  TGI: 14.8 µM and 32.3 µM
[48]
  GI50: 8.38 µM
  TGI: 24.4 µM and 19 µM
[49]
  GI50: 14.4 µM
  TGI: 38 µM
[50]
  TGI: > 100 µM
[51]
  GI50: 17.6 µM
  TGI: 48.9 µM and 96.9 µM
[52]
  TGI: 39.1 µM
[53]
  GI50: 15.3 µM
  TGI: 36.3 µM and 32.8 µM
[54]
  GI50: 2.44 µM
  TGI: 13.9 µM and 39.6 µM
[55]
  GI50: 3.16 µM
  TGI: 11.6 µM and 17.4 µM
